This test deals with OppA (main ectoATPase of M. hominis PG21) (Metamycoplasma hominis, UniProt D1J7T8). To be noted: intact cells of parental strain PG21 (whole-cell ectoATPase activity, other ATPases not excluded); pH 7.5, 37 °C, 4 h, 0-3 mM ATP.
Chain of OppA (main ectoATPase of M. hominis PG21) (D1J7T8 entry or part of it): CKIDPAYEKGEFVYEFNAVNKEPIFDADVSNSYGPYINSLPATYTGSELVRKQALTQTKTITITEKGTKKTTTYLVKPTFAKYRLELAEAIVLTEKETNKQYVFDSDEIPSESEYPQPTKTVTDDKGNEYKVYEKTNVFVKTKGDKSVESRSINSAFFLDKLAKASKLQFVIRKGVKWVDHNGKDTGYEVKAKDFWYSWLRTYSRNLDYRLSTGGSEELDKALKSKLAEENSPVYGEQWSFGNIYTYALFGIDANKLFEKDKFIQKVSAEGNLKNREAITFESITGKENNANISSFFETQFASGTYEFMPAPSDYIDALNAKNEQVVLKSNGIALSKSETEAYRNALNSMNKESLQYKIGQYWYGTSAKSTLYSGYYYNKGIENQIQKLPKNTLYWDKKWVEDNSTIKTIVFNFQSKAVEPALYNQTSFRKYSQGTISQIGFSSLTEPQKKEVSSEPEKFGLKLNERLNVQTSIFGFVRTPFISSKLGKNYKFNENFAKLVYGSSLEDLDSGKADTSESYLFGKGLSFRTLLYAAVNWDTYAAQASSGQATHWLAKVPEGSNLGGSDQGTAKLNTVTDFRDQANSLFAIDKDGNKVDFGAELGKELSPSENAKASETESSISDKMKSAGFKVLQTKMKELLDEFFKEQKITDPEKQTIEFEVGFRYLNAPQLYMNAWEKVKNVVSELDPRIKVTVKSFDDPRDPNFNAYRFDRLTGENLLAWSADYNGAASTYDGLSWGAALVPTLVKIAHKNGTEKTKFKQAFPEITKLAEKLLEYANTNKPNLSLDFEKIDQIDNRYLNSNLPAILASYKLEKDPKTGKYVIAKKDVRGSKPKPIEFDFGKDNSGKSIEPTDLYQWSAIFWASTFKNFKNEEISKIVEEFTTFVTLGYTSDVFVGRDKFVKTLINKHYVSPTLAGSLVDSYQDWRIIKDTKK

As for `Nc1ncnc2c1ncn2[C@@H]1O[C@H](COP(=O)(O)OP(=O)(O)OP(=O)(O)O)[C@@H](O)[C@H]1O` [ATP], the Km result is reported as “the parental PG21 strain were tested for ATPase activity”.

Source of the values: publication PMC6038183 (BMC Genomics, 2018).
